From patent EP0974593A1, “Artemisinin derivatives as antiparasitic agents” (The Hong Kong University of Science & Technology, priority 1998, dated 2000) come the findings set out here.

Test [1] relates to Plasmodium Falciparum W2 strain (chloroquine resistant). The experiment in a line: In vitro activity against Plasmodium falciparum, 3H-hypoxanthine incorporation assay, W2 strain. The class given is cell-based. The note with it: W2, 66 h; for IC50 / IC90: Plasmodium falciparum. From the text:
(§1) (a) InVitro Activity against Plasmodium Falciparum
(§2) Two parasite strains - W2 resistant to chloroquine, and D6 sensitive to chloroquine but […] were used. In Table I below, the best compounds should show no cross resistance between the two strains.
(§3) The assay relies on incorporation of radiolabelled hypoxanthine by the parasite and inhibition of incorporation is attributed to activity of known or candidate antimalarial drugs. For each assay, proven antimalarials such as chloroquine, mefloquine, quinine, artemisinin and pyrimethamine were used as controls. The incubation period was 66 hours, and the starting parasitemia was 0.2% with 1% hematocrit. The medium was an RPMI-1640 culture with no folate or p-aminobenzoic acid. Albumax rather than 10% normal heat inactivated human plasma was used as, with Albumax, less protein binding is observed, and compounds elicit slightly higher activities in this model. If a compound was submitted with no prior knowledge of activity, it was dissolved directly in dimethyl sulphoxide (DMSO), and diluted 400 fold with complete culture medium. […]. These dilutions were performed automatically by a Biomek 1000 Liquid Handling System in 96-well microtiter plates. The diluted drugs were then transferred to test plates, 200 µL of parasitized erythrocytes were added, and incubated at 37°C in a controlled environment of 5% CO2, 5% O2 and 90% N2. After […], 25 µL of ^3H-hypoxanthine was added, and the plates incubated for an additional 24 hours. After 66 hours, the plates were frozen at -70°C to lyse the red cells, and then thawed and harvested onto glass fiber filter mats in a 96-well harvester. The filter mats were then counted in a scintillation counter. For each drug, the concentration response profile was determined and 50% and 90% inhibitory concentrations (IC50, IC90 […]) were determined by a non-linear logistic dose response analysis program.
(§4) A prescreen format can be used wherein a 3-dilution assay may be used to determine activity at high medium or low concentrations. […]. These were performed in duplicate on a 96-well format plate with 14 test compounds and one known (standard) compound per plate. The system was automated with a Biomek diluter for mixing and diluting the drugs, and adding drugs and parasites to a test plate.
(§5) In the prescreen format, if the ANALYSIS FIELD (AF) has a "<", then the compound was "very active" and the IC values are most likely to be below the last dilution value (in nanograms/ml), which is listed next to AF. In most cases, these compounds were run again at lower starting concentration to determine the true IC value. If the AF has a ">", then the IC value is greater than the prescreen dilution value; thus "AF>250" means that the IC value is greater than 250 ng ml^-1 and no further screening is carried out. In such cases, values of 0.00 are entered for IC values.

In test [2] the test system is Plasmodium Falciparum D6 strain (chloroquine sensitive). The test can be described thus: In vitro activity against Plasmodium falciparum, 3H-hypoxanthine incorporation assay, D6 strain. The settings on record: D6, 66 h; for IC50 / IC90: Plasmodium falciparum; for IC50: read-out: In vitro activity: IC50; for IC90: read-out: In vitro activity: IC90. The class given is cell-based.
Source text: as §1, §2, §3, §4, §5

Where [3] appears, read: read-out: In vitro activity: IC50, W2 strain (chloroquine resistant), 66 hours incubation, Albumax medium.
Where [4] appears, read: read-out: In vitro activity: IC90, W2 strain (chloroquine resistant), 66 hours incubation, Albumax medium.
Setting [5] is: D6 strain (chloroquine sensitive, resistant to mefloquine), 66 hours incubation, Albumax medium.

≈ marks a conversion by molar mass, not a printed value. Read-outs that look alike come from different tables or passages of the source.

A word on the IC50: it is the concentration that gives 50% inhibition. By IC90 is commonly meant the point of the concentration-response curve where the effect stands at 90%. As to `C[C@@H]1CC[C@H]2[C@@H](C)C(=O)N(Cc3ccccc3)[C@@H]3O[C@@]4(C)CC[C@@H]1[C@@]23OO4` [Example 6], the figures for the IC50 in test [1] (setting [3]) and in test [2] (setting [5]) were 3.8 ng/mL (≈ 10.2 nM) and 3.62 ng/mL (≈ 9.74 nM), respectively. Also, the IC90 in test [1] (setting [4]) was 4.68 ng/mL (≈ 12.6 nM); in test [2] (setting [5]), 6.68 ng/mL (≈ 18 nM).

For `C[C@@H]1CC[C@H]2[C@@H](C)C(=O)N(Cc3ccccc3F)[C@@H]3O[C@@]4(C)CC[C@@H]1[C@@]23OO4` [Example 2, 11-aza-N-(2-fluorobenzyl)artemisinin], the IC50 turned out to be 0.775 ng/mL (≈ 1.99 nM) in test [1] (setting [3]) and 0.64 ng/mL (≈ 1.64 nM) in test [2] (setting [5]). In addition, the IC90 in test [1] (setting [4]) was 0.975 ng/mL (≈ 2.5 nM); in test [2] (setting [5]) it was 0.99 ng/mL (≈ 2.54 nM).

In the case of `C[C@@H]1CC[C@H]2[C@@H](C)C(=O)N(Cc3cccc(F)c3)[C@@H]3O[C@@]4(C)CC[C@@H]1[C@@]23OO4` [Example 5], the IC50 in test [1] (setting [3]) is 0.58 ng/mL (≈ 1.49 nM); in test [2] (setting [5]), 0.79 ng/mL (≈ 2.03 nM). Further, the IC90 in test [1] (setting [4]) is 0.95 ng/mL (≈ 2.44 nM); in test [2] (setting [5]) it was 1.26 ng/mL (≈ 3.24 nM).

In the case of `C[C@@H]1CC[C@H]2[C@@H](C)C(=O)N[C@@H]3O[C@@]4(C)CC[C@@H]1[C@]32OO4` [Example 1, 11-azaartemisinin], the IC50 in test [1] (read-out: In vitro activity: IC50) was 1.73 ng/mL (≈ 6.15 nM); in test [2], 2.6 ng/mL (≈ 9.24 nM). Further, the IC90 in test [1] (read-out: In vitro activity: IC90) was found to be 2.24 ng/mL (≈ 7.96 nM); in test [2], 3.6 ng/mL (≈ 12.8 nM).

Regarding `C[C@@H]1CC[C@H]2[C@@H](C)C(=O)N(Cc3ccc(F)cc3)[C@@H]3O[C@@]4(C)CC[C@@H]1[C@@]23OO4` [Example 4], the entries for the “In vitro activity: (IC10)” value in test [1] and in test [2] were 0.31 ng/mL and 1.13 ng/mL, respectively.
